Experimental data taken from ChEMBL document CHEMBL1201862, “PubChem BioAssay data set” (2004).
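Cells were grown in 96-well plates and exposed to each compound for 48 hours at five concentrations; endpoints were interpolated linearly between bracketing concentrations, or set to the highest concentration if not reached. GI50 marks 50% less growth.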 The source made the active and inactive calls. Rule as the data show it: active = GI50 up to about 1.1 µM and inactive = higher.

Tests used:
Test in all cases: growth of human tumour cells (NCI), 48 h
UACC-257 = tested on: UACC-257
Malme-3M = tested on: Malme-3M
SW-620 = tested on: SW-620
HCT-116 = tested on: HCT-116
DMS-273 = tested on: DMS-273
SK-MEL-28 = tested on: SK-MEL-28
LXFL 529 = tested on: LXFL 529
SF-539 = tested on: SF-539
SK-OV-3 = tested on: SK-OV-3
HL-60 = tested on: HL-60
NCI-H460 = tested on: NCI-H460
XF498 = tested on: XF498
SNB-75 = tested on: SNB-75
HOP-62 = tested on: HOP-62
M19-MEL = tested on: M19-MEL
SNB-19 = tested on: SNB-19
SF-295 = tested on: SF-295
MDA-N = tested on: MDA-N
PC-3 = tested on: PC-3
NCI/ADR-RES = tested on: NCI/ADR-RES

SMILES | GI50 (UACC-257) | GI50 (Malme-3M) | GI50 (SW-620) | GI50 (HCT-116) | GI50 (DMS-273) | GI50 (SK-MEL-28) | GI50 (LXFL 529) | GI50 (SF-539) | GI50 (SK-OV-3) | GI50 (HL-60) | GI50 (NCI-H460) | GI50 (XF498) | GI50 (SNB-75) | GI50 (HOP-62) | GI50 (M19-MEL) | GI50 (SNB-19) | GI50 (SF-295) | GI50 (MDA-N) | GI50 (PC-3) | GI50 (NCI/ADR-RES)
Cn1c(=O)c2c(nc(C[N+]3([O-])CCOCC3)n2C)n(C)c1=O | > 100 µM (inactive) | > 100 µM (inactive) | > 100 µM (inactive) | 7.98 µM (inactive) | > 100 µM (inactive) | > 100 µM (inactive) | > 100 µM (inactive) | > 100 µM (inactive) | > 100 µM (inactive) | > 100 µM (inactive) | > 100 µM (inactive) | > 100 µM (inactive) | 63.5 µM (inactive) | > 100 µM (inactive) | > 100 µM (inactive) | > 100 µM (inactive) | – | – | – | –
NC(=O)c1cn(Cc2ccccc2)c(=O)n1Cc1ccccc1 | > 100 µM (inactive) | – | > 100 µM (inactive) | > 100 µM (inactive) | > 100 µM (inactive) | > 100 µM (inactive) | > 100 µM (inactive) | > 100 µM (inactive) | > 100 µM (inactive) | > 100 µM (inactive) | > 100 µM (inactive) | > 100 µM (inactive) | > 100 µM (inactive) | > 100 µM (inactive) | > 100 µM (inactive) | > 100 µM (inactive) | > 100 µM (inactive) | – | – | –
CC1(C)Cc2c(oc3ncnc(N)c23)CS1 | > 100 µM (inactive) | > 100 µM (inactive) | > 100 µM (inactive) | > 100 µM (inactive) | > 100 µM (inactive) | – | > 100 µM (inactive) | > 100 µM (inactive) | > 100 µM (inactive) | – | > 100 µM (inactive) | > 100 µM (inactive) | > 100 µM (inactive) | > 100 µM (inactive) | > 100 µM (inactive) | > 100 µM (inactive) | > 100 µM (inactive) | – | – | –
CCCNC(=O)C1C(=O)C(=O)N(CCC)C1=O (configuration not stated) | > 100 µM (inactive) | > 100 µM (inactive) | > 100 µM (inactive) | > 100 µM (inactive) | > 100 µM (inactive) | > 100 µM (inactive) | > 100 µM (inactive) | > 100 µM (inactive) | > 100 µM (inactive) | – | > 100 µM (inactive) | > 100 µM (inactive) | > 100 µM (inactive) | > 100 µM (inactive) | > 100 µM (inactive) | > 100 µM (inactive) | – | – | – | –
OC(c1ccccc1Br)(c1ccccc1Br)C(F)(F)F | 37.8 µM (inactive) | 24 µM (inactive) | 19.4 µM (inactive) | 19.7 µM (inactive) | 20.3 µM (inactive) | 27.7 µM (inactive) | 42.1 µM (inactive) | 33.2 µM (inactive) | 36.5 µM (inactive) | – | 27.7 µM (inactive) | 23.1 µM (inactive) | 33 µM (inactive) | 28 µM (inactive) | 23.9 µM (inactive) | > 10 µM (inactive) | 21.1 µM (inactive) | – | – | –
CCOC(=O)[C@]12C3C=CC(C3)C1C(=O)C1OC12 (some centres not stated) | > 100 µM (inactive) | > 100 µM (inactive) | > 100 µM (inactive) | > 100 µM (inactive) | > 100 µM (inactive) | > 100 µM (inactive) | > 100 µM (inactive) | > 100 µM (inactive) | > 100 µM (inactive) | > 100 µM (inactive) | > 100 µM (inactive) | > 100 µM (inactive) | 81.5 µM (inactive) | > 100 µM (inactive) | > 100 µM (inactive) | > 100 µM (inactive) | > 100 µM (inactive) | – | – | –
Cc1c(C(=O)/C=C/c2ccc3c(c2)OCO3)[n+]([O-])c2ccccc2[n+]1[O-] | 31 µM (inactive) | 89.5 µM (inactive) | 37.2 µM (inactive) | 29.4 µM (inactive) | 22.6 µM (inactive) | 61 µM (inactive) | 22.2 µM (inactive) | 22.5 µM (inactive) | 21.3 µM (inactive) | 30.8 µM (inactive) | 28.4 µM (inactive) | 25.8 µM (inactive) | 26.1 µM (inactive) | > 100 µM (inactive) | 35.2 µM (inactive) | 56 µM (inactive) | 28.7 µM (inactive) | – | – | –
COc1ccc(CC(C#N)c2cc(OC)c(OC)c(OC)c2)cc1 (configuration not stated) | 0.0356 µM (active) | 0.0361 µM (active) | 0.0236 µM (active) | 0.0466 µM (active) | 0.0303 µM (active) | 0.0619 µM (active) | 0.171 µM (active) | 0.0436 µM (active) | 0.0474 µM (active) | 0.0258 µM (active) | 0.0409 µM (active) | 0.356 µM (active) | 0.0475 µM (active) | 0.0869 µM (active) | 0.0676 µM (active) | 0.0986 µM (active) | 0.0184 µM (active) | < 0.01 µM (active) | 0.014 µM (active) | 0.0185 µM (active)
